In ChEMBL document CHEMBL1201862, “PubChem BioAssay data set” (2004):
Active and inactive are the calls of the source.

Assays:
[1] = target: T1, Kappa-type opioid receptor (Homo sapiens, UniProt P41145); test: SAR analysis of small molecule antagonists of the kappa opioid receptor via a luminescent beta-arrestin assay - Set 3. [Related pubchem assays (depositor defined):AID1777, AID1778, AID1785, AID1786, AID1966, AID2133, AID2136, AID2285, AID2495]; assay type: functional
[2] = target: T2, Mu-type opioid receptor (Homo sapiens, UniProt P35372); test: SAR Analysis of Antagonists of the MOR Receptor using an Image-Based Assay - Set 3. [Related pubchem assays (depositor defined):AID1777, AID1785, AID1786, AID1966, AID2133, AID2136, AID2284, AID2285, AID2420]; assay type: functional
[3] = target: T3, Delta-type opioid receptor (Homo sapiens, UniProt P41143); test: SAR Analysis of Antagonists of the DOR Receptor using an Image-Based Assay - Set 3. [Related pubchem assays (depositor defined):AID1777, AID1785]; assay type: functional
[4] = target: T1, Kappa-type opioid receptor; test: SAR analysis of Antagonists of the Kappa Opioid Receptor (KOR) using an Image-Based Assay - Set 3. [Related pubchem assays (depositor defined):AID1777, AID1785]; assay type: functional
[5] = target: T1, Kappa-type opioid receptor; test: KOR agonist analogs, imaging readout, SAR follow-up, image-based (AID 2359); assay type: functional
[6] = target: T1, Kappa-type opioid receptor; assay type: functional
[7] = target: T1, Kappa-type opioid receptor; assay type: functional; remark: listed apart in the source
[8] = target: T1, Kappa-type opioid receptor; test: KOR antagonists by imaging, SAR follow-up, image-based (AID 2348); assay type: functional
[9] = target: Beta-galactosidase (Escherichia coli, UniProt Q8VNN2); assay type: functional
[10] = target: T4, Streptokinase A (Streptococcus pyogenes serotype M1, UniProt P10520); test: S. pyogenes streptokinase expression inhibitors, potency, dose response, plasminogen activation absorbance, OD405 (AID 1914); assay type: functional, Streptococcus pyogenes M1 GAS;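 further: secreted streptokinase activity via plasminogen activation per viability signal from cell pellet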
T4 sequence (P10520 whole entry): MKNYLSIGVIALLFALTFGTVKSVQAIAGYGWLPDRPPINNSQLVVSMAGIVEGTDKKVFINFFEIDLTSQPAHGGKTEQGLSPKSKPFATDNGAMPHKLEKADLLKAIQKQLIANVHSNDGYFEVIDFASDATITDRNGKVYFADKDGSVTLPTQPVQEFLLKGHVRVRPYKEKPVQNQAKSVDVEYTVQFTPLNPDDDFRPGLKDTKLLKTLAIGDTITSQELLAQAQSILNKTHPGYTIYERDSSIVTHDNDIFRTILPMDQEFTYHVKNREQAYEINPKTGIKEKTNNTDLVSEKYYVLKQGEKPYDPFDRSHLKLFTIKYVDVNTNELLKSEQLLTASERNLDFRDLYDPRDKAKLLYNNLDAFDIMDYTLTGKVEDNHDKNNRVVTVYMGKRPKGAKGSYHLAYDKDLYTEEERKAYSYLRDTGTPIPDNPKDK

[11] = tested on: Streptococcus; test: Group A Streptococcus viability loss, dose response, counter-screen for streptokinase expression inhibitor project, luminescence, BacTiterGlo (AID 1915); assay type: functional, organism-based;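 further: potency for reduction of bacterial viability or growth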
[12] = target: T2, Mu-type opioid receptor; test: MOR antagonists, SAR follow-up, image-based (AID 2420); assay type: functional;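 further: compounds added before stimulation of receptor with agonist DAMGO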
[13] = target: T2, Mu-type opioid receptor; test: MOR agonists by imaging, SAR follow-up, image-based (AID 2352); assay type: functional
[14] = tested on: Streptococcus sp. 'group A'; test: growth inhibition of control SK(-) GAS strain, dose response, counter-screen for streptokinase expression inhibitor project, luminescence, kanamycin, BacTiterGlo, confirmation (AID 1900); assay type: functional, organism-based
[15] = target: T5, Tyrosine-protein phosphatase non-receptor type 7 (Homo sapiens, UniProt P35236); test: SAR analysis of chemical inhibitors of HePTP using a Fluorescent assay - Set 2. [Related pubchem assays (depositor defined):AID1059, AID1077, AID1661, AID2085, AID521]; assay type: functional
T5 sequence (P35236 whole entry): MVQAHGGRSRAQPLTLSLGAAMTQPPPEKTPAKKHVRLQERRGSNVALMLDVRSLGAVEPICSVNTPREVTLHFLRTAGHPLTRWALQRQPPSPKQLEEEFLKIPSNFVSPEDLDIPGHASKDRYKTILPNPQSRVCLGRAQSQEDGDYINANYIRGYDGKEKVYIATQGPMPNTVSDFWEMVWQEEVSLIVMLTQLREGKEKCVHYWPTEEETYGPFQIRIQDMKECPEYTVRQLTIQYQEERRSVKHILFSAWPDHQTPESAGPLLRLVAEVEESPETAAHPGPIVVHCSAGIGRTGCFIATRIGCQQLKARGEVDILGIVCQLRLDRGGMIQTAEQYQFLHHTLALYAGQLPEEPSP

[16] = target: T1, Kappa-type opioid receptor; test: kappa opioid receptor blockers, cell-based, luminescence, beta-arrestin, SAR follow-up (AID 2285); assay type: functional
[17] = target: Dual specificity protein phosphatase 3 (Homo sapiens, UniProt P51452); test: SAR VHR1 Fluorescent Assay for In Vitro dose response studies Set 2. [Related pubchem assays (depositor defined):AID1654, AID1661, AID1878]; assay type: functional
[18] = target: T3, Delta-type opioid receptor; test: DOR antagonists, SAR follow-up, image-based (AID 2357); assay type: functional
[19] = target: T3, Delta-type opioid receptor; test: DOR agonists, SAR follow-up, image-based (AID 2370); assay type: functional
[20] = target: NACHT, LRR and PYD domains-containing protein 3 (Homo sapiens, UniProt Q96P20); test: NALP3 inhibitors in yeast, dose response, luminescent (AID 488799); assay type: functional
[21] = cytotoxicity toward NIH3T3 fibroblasts, dose response, counter-screen, cell-based, ATP luminescence, mouse fibroblasts (AID 2010); assay type: functional;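 further: cells exposed to compound for about 90 hours before reading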
[22] = inhibitors of intracellular T. cruzi replication, confirmation, NIH3T3 host cells, beta-gal luminescence (AID 2044); assay type: functional, cell-based;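 further: intracellular parasites grown in NIH/3T3 mouse fibroblasts as host cells; luminescent beta-galactosidase reporter signal from transgenic T. cruzi replicating inside host cells; inhibitors lower the luminescence signal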
[23] = A Cell Based Secondary Assay To Explore Cytotoxicity of Compounds that Sensitize Mycobacterium Tuberculosis to Beta-Lactam Antibiotics.; assay type: functional
[24] = target: T1, Kappa-type opioid receptor; assay type: functional; remark: listed apart in the source
[25] = target: T2, Mu-type opioid receptor; test: HTS Image-Based Screen for Agonists of the MOR Receptor. [Related pubchem assays (depositor defined):AID1777, AID1785, AID1786, AID2133]; assay type: functional
[26] = target: T1, Kappa-type opioid receptor; test: SAR analysis of small molecule agonists of the kappa opioid receptor via a luminescent beta-arrestin assay. [Related pubchem assays (depositor defined):AID1777, AID1786, AID1966, AID2133, AID2136, AID2348, AID2352, AID2357, AID2359, AID2370, AID2420, AID2478, AID2491, AID2492, AID2493, AID2497, AID2498, AID2500, AID449737, AID488822, AID488842]; assay type: functional
[27] = target: T3, Delta-type opioid receptor; test: HTS Image-Based Screen for Antagonists of the DOR Receptor. [Related pubchem assays (depositor defined):AID1777, AID1785, AID1786, AID2133]; assay type: functional
[28] = target: T1, Kappa-type opioid receptor; assay type: functional; remark: listed apart in the source
[29] = target: T3, Delta-type opioid receptor; test: HTS Image-Based Screen for Agonists of the DOR Receptor. [Related pubchem assays (depositor defined):AID1777, AID1786, AID2133]; assay type: functional

T2 sequence (P35372 whole entry): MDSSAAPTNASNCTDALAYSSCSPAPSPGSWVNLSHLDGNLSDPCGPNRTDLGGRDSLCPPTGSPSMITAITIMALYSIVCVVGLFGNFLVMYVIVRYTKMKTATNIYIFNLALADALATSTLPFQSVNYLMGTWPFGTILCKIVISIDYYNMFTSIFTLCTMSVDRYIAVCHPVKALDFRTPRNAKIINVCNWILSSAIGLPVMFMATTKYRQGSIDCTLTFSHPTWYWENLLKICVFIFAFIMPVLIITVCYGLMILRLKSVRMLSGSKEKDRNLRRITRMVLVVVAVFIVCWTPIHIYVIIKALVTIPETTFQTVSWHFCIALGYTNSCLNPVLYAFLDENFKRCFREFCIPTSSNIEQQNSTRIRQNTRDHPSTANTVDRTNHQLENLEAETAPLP
T3 sequence (P41143 whole entry): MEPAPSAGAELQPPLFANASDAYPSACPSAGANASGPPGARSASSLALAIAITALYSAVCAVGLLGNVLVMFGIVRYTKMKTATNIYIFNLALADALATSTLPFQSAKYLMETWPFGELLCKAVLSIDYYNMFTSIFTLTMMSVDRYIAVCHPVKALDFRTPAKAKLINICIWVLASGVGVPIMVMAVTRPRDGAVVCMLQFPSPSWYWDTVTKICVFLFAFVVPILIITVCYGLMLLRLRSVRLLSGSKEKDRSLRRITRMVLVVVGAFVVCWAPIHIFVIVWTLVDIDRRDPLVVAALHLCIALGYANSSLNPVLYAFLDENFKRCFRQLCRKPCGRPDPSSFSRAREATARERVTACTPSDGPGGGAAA
T1 sequence (P41145 whole entry): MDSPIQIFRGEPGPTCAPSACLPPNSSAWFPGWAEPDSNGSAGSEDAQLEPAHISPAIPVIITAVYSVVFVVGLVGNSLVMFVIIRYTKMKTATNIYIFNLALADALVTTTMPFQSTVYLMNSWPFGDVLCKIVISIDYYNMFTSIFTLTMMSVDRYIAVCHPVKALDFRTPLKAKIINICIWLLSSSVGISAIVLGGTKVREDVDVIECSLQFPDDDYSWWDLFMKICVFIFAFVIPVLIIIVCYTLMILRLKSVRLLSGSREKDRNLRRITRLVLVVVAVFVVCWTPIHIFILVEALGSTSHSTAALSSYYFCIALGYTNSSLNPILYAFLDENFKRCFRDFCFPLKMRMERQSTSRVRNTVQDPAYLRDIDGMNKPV
Chain of NACHT, LRR and PYD domains-containing protein 3 (Q96P20 whole entry, the tested form may be a part): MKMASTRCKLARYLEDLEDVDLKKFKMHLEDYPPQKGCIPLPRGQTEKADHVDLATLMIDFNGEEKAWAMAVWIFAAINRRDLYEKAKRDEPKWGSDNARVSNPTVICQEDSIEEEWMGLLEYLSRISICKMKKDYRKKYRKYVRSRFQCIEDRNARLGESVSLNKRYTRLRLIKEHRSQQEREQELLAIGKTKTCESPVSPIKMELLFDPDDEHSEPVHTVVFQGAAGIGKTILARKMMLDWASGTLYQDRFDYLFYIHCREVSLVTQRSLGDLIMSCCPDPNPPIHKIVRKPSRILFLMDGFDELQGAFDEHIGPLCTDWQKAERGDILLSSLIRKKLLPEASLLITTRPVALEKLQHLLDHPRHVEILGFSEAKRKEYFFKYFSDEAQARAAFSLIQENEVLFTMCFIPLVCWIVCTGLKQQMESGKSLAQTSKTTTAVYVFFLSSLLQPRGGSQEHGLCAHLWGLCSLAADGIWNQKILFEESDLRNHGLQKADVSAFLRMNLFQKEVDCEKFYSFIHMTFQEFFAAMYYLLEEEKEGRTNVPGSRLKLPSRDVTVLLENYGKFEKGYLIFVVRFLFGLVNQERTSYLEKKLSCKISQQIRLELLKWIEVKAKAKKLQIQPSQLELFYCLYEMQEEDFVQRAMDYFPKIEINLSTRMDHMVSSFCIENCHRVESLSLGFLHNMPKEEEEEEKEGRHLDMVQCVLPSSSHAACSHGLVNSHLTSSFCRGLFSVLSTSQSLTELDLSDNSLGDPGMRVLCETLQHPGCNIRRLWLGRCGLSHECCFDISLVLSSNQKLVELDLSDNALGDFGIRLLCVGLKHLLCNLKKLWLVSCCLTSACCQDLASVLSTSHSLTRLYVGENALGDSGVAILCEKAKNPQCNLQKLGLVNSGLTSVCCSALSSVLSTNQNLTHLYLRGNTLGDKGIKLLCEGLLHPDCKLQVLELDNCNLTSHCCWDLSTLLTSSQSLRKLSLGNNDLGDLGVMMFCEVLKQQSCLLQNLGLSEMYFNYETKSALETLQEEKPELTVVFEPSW
Chain of Beta-galactosidase (Q8VNN2 whole entry): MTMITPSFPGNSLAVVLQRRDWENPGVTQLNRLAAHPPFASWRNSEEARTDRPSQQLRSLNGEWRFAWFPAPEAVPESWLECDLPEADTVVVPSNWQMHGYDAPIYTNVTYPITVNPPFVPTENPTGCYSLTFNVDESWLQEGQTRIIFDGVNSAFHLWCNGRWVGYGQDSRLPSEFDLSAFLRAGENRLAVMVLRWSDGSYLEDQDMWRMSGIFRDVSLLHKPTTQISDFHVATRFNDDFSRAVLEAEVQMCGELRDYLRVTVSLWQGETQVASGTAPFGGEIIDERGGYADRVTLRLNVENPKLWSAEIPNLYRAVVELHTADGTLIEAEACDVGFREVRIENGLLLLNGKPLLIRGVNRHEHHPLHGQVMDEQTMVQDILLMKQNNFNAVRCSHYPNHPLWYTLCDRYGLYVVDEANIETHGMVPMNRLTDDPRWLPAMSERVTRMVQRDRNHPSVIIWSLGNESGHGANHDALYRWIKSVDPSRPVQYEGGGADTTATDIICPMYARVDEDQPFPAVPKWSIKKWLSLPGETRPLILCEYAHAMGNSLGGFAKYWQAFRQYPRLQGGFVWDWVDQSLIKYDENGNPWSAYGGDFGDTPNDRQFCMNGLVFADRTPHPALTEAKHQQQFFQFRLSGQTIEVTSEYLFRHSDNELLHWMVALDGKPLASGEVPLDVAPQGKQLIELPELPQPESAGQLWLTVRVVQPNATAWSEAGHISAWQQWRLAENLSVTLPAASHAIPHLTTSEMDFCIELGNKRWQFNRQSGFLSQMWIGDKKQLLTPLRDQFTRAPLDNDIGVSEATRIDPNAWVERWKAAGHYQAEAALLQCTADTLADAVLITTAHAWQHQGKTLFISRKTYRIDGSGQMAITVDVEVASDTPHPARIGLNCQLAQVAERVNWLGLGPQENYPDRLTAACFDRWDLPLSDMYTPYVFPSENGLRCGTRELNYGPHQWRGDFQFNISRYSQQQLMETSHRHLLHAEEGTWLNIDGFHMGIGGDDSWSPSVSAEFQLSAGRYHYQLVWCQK
Chain of Dual specificity protein phosphatase 3 (P51452 whole entry): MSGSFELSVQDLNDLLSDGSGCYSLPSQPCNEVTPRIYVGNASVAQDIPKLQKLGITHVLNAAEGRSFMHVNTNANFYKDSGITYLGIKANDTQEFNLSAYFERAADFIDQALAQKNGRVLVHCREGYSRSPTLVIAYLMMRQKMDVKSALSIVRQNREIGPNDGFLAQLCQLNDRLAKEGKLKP

Cc1ccc(CN(CCNC(=O)c2ccc(CNS(=O)(=O)c3ccc(C)cc3)cc2)C(C)C)cc1
IC50 [1]: 1.17 µM (active)
IC50 [2]: > 32 µM (inactive)
IC50 [3]: > 32 µM (inactive)
IC50 [4]: 0.246 µM (active)

O=C(NC(NC(=S)Nc1c(Cl)cccc1Cl)C(Cl)(Cl)Cl)OCc1ccccc1 (stereo not given)
EC50 [5]: > 32 µM (inactive)
IC50 [6]: 3.48 µM (active)
IC50 [7]: 2.04 µM
IC50 [8]: 0.74 µM (active)
EC50 [9]: > 31.5 µM (inactive)
EC50 [10]: 3.01 µM (active)
EC50 [11]: 18 µM (active)
IC50 [12]: 8.43 µM (active)
EC50 [13]: > 32 µM (inactive)
EC50 [14]: 1.65 µM (active)
IC50 [15]: 63 µM (active)
IC50 [16]: 1.15 µM (active)
IC50 [17]: 90 µM (active)
IC50 [18]: > 32 µM (inactive)
EC50 [19]: > 32 µM (inactive)

O=C(CCS(=O)(=O)c1ccccc1)N(CCCN1CCOCC1)c1nc2c(F)cccc2s1
IC50 [20]: 2.07 µM (active)
EC50 [21]: 4.45 µM (active)
EC50 [22]: 3.11 µM (active)
CC50 [23]: > 40 µM (active)

CCC(C)(C(=O)NC1CCCCC1)N(Cc1ccco1)C(=O)c1cnccn1 (stereo not given)
EC50 [5]: 1.36 µM (active)
EC50 [24]: 2.47 µM
EC50 [25]: > 32 µM (inactive)
EC50 [26]: 3.71 µM (active)
IC50 [27]: > 32 µM (inactive)
IC50 [8]: > 32 µM (inactive)
IC50 [12]: > 32 µM (inactive)
EC50 [13]: > 32 µM (inactive)
EC50 [28]: 1.75 µM
EC50 [29]: > 32 µM (inactive)
IC50 [18]: > 32 µM (inactive)
EC50 [19]: > 32 µM (inactive)
